Experimental data as given in US4055640A, “Compositions and methods for controlling the growth of bacteria, fungi and algae using certain derivatives of N-(2,2-dichlorovinyl)salicylamides” (Nippon Kayaku Co., Ltd., priority 1975, dated 1977).
In brackets after ≈: the same amount, converted by molar mass.

Tests used:
[1] = test system: Fusarium wilt of cucumber; experiment: Exterminating test on Fusarium wilt of cucumber (Experimental Example 4); type: in vivo, Fusarium oxysporum f, cucumerinum; conditions: Fusarium, soil, 336 h, read-out: Percentage of healthy seedlings
Method in brief: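 Pots of steam-sterilized soil mixed with 20 g infested soil, sown with 18 cucumber seeds (Tokiwazibai), drenched with 100 ml aqueous suspension of 80% wettable powder. Benlate 50% wettable powder run as control. Disease scored two weeks after planting as percentage of healthy seedlings.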

[2] = test system: Rhizoctonia solani (damping-off of cucumber); experiment: Exterminating test on damping-off of cucumber (Experimental Example 3); type: in vivo; conditions: Rhizoctonia solani, soil, 240 h, read-out: Percentage of healthy seedlings
Method in brief: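 Pots of field soil infested with Rhizoctonia solani (5 g/pot), sown with 10 Azumamidori cucumber seeds, then drenched with 50 ml aqueous suspension of 80% wettable powder and kept in greenhouse. PCNB 50% wettable powder as control. Percentage of healthy seedlings scored 10 days after inoculation.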

[3] = test system: seedling blight of rice plant (pathogen Fusarium sp. and Rhizoctonia sp.); experiment: Exterminating test on seedling blight of rice plant (Experimental Example 1); type: in vivo; conditions: soil, 408 h, read-out: Percentage of healthy seedlings
Method in brief: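 Pathogen-contaminated nursery soil (Fusarium sp., Rhizoctonia sp.) mixed with 5% compound dust at 5 g per box; Nihonbare rice sown, grown 7 days at 17° C in lighting chamber, then moved to field. Assessed 10 days later as percentage of healthy seedlings; commercial 4% hydroxyisoxazol dust run as control.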

[4] = test system: cucumber (variety: Azumamidori); experiment: Phytotoxicity on cucumber (Experimental Example 3); type: in vivo; conditions: 1,000 ppm
[5] = test system: cucumber (variety; Tokiwazibai); experiment: Phytotoxicity on cucumber (Experimental Example 4); type: in vivo; conditions: 500 ppm
Description: Exterminating test on Fusarium wilt of cucumber Twenty (20) grams of infected soil was added uniformly into each pot which was filled with steam sterilized field soil, then 18 seeds of cucumber (variety; Tokiwazibai) were sowed in each pot. Eighty percent (80%) wettable powder of the present invention was diluted with water to obtain a suspension, and each pot was drenched with the suspension in an amount of 100 ml. Fifty percent (50%) wettable powder of methyl-1-(butylcarbamoyl) 2-benzimidazol carbamate (hereinafter referred to as Benlate) on the market was used as a control and tested by the same method. After two weeks of planting, degrees attacked by the pathogen was observed and a "percentage of healthy seedlings" was calculated as follows: [formula]

[6] = test system: rice plant (variety: Nihonbare); experiment: Phytotoxicity on rice plant (Experimental Example 1); type: in vivo; conditions: 0.25g/box a.i.
Description: Exterminating test on seedling blight of rice plant Nursery boxes (60 × 30 × 3 cm) were filled with soil which were contaminated with pathogen (Fusarium sp. and Rhizoctonia sp.) The dust in which the present compound was contained in a ratio of 5% by weight was added in the box in a ratio of 5 grams per box and mixed well with soil. Thereafter, seeds of rice plant (variety: Nihonbare) were sowed in drills at a rate of 0.3 liter per box and grown up in a lighting chamber at 17° C. After 7 days from the sowing, the boxes were carried out in the field. Furthermore, 10 days thereafter the observations were made. Four percent (4%) dust of 3-hydroxy-5-methyl isoxazol (hereinafter referred to as hydroxyisoxazol) on the market was used as a control and tested by the same method. The test results are shown in Table 2 with a "percentage of healthy seedlings". The percentage of healthy seedlings was calculated as follows: […]

Bacillus subtilis = experiment: Minimum inhibitory amount, dilution methods (Example 24); type: cell-based; conditions: Bacillus subtilis, read-out: Minimum inhibitory amount
Source text: (§1) Bactericidal activity and fungicidal activity of the active compounds of the present invention were examined by potato-dextrose agar dilution method, or [2] glucose bouillon medium dilution method. The results are shown in Table 10 below as the minimum inhibitory concentration (the minimum concentration of active compound found to produce 100% control of the test bacteria and fungi).

Penicillium Citrinum = experiment: as above; type: cell-based; conditions: Penicillium citrinum, read-out: Minimum inhibitory amount
Source text: as §1

Escherichia coli = experiment: as above; type: cell-based; conditions: Escherichia coli, read-out: Minimum inhibitory amount
Source text: as §1

Aspergillus niger = experiment: as above; type: cell-based; conditions: Aspergillus niger, read-out: Minimum inhibitory amount
Source text: as §1

Cladosporium harbarum = experiment: as above; type: cell-based; conditions: Cladosporium, read-out: Minimum inhibitory amount
Source text: as §1

Staphylococcus aureus = experiment: as above; type: cell-based; conditions: Staphylococcus aureus, read-out: Minimum inhibitory amount
Source text: as §1

SMILES: CNC(=O)Oc1ccccc1C(=O)NC=C(Cl)Cl [Compound No. 19, O-(N'-methylcarbamoyl)-N-(2,2-dichlorovinyl) salicylamide]
- pest or weed control at 500 ppm [1]: 38%
- pest or weed control at 1000 ppm [2]: 65%
- Percentage of healthy seedlings at 0.25 g/box [3]: 64.7%
- Phytotoxicity [4]: Nil
- Phytotoxicity [5]: Nil
- Phytotoxicity [6]: Nil
- MIC (Bacillus subtilis): 10 µg/mL (≈ 34.6 µM)
- MIC (Penicillium Citrinum): 10 µg/mL (≈ 34.6 µM)
- MIC (Escherichia coli): 60 µg/mL (≈ 208 µM)
- MIC (Aspergillus niger): 20 µg/mL (≈ 69.2 µM)
- MIC (Cladosporium harbarum): 5 µg/mL (≈ 17.3 µM)
- MIC (Staphylococcus aureus): 10 µg/mL (≈ 34.6 µM)
